Tests used:
[1] = stability testing / degradation of paliperidone; type: physicochemical; details: stress conditions, stability testing (FIGS. 7, 8, 9A, 9B)
Description: FIGS. 8, 9A and 9B illustrate the increased stability of paliperidone in the dosage forms incorporating the protective subcoat compared to dosage forms not incorporating the protective subcoat.

[2] = in vivo; cited from earlier work
[3] = cited from earlier work

Structure (SMILES) | degradation / stability [1] | half-life [2] | solubility in water [3]
Cc1nc2n(c(=O)c1CCN1CCC(c3noc4cc(F)ccc34)CC1)CCCC2O (stereo not shown) [paliperidone] | degrades into notable amounts of impurities | about one | practically insoluble in water
Cc1nc2n(c(=O)c1CCN1CCC(c3noc4cc(F)ccc34)CC1)CCCC2 [risperidone] |  |  | practically insoluble in water

— patent US9393192B2, “Methods and dosage forms for controlled delivery of paliperidone and risperidone” (ALZA CORPORATION, priority 2002, dated 2016)
